{
  "source": "paper PMC7279002",
  "about": "“Novel 3′-Substituted-1′,2′,4′-Oxadiazole Derivatives of 18βH-Glycyrrhetinic Acid and Their O-Acylated Amidoximes: Synthesis and Evaluation of Antitumor and Anti-Inflammatory Potential In Vitro and In Vivo” (International Journal of Molecular Sciences, 2020)",
  "key": {"[1]": {"tested_on": "human cervical carcinoma KB-3-1", "experiment": "MTT cytotoxicity assay, 48 h", "assay_type": "cell-based", "in_short": "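Cells were seeded at 10^4 per well, grown 24 h, then exposed to derivatives (0.5–50 µM, DMSO vehicle) for 48 h at 37 °C, 5% CO2 in DMEM/10% FBS. Viability was read by MTT (0.5 mg/mL final, 2 h; A570/620). IC50 was the concentration reducing A570 to 50% of control, from dose–response curves.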"}, "HeLa cells": {"tested_on": "HeLa cells", "experiment": "Apoptosis assay by flow cytometry (annexin V-FITC/PI)", "assay_type": "cell-based, human", "conditions": "48 h", "experimental": "HeLa cells were seeded in 24-well plates at density of 5 × 10^4 cells per well and incubated under standard conditions for 24 h. Next, the cells were treated by compound 5f at 7 or 10 µM for a subsequent 48 h, followed by dissociation of cell monolayers into single cells by TrypLE Express (Gibco, Taastrup, Denmark) - and washing with cold PBS. Thereafter, cells were resuspended in binding buffer at concentration of 10^6 cells/mL. After double staining with Annexin V-FITC and propidium iodide (PI) from an Annexin V-FITC Apoptosis Detection Kit (Millipore, Bedford, MA, USA), cells were analyzed using a NovoCyte Flow Cytometer (ACEA Biosciences Inc., San Diego, CA, USA). For each sample, 10,000 events were acquired."}, "[2]": {"tested_on": "activated caspases in HeLa cells", "experiment": "Metacaspases activity assay (FITC-VAD-FMK)", "assay_type": "cell-based, human", "conditions": "dose-dependent", "experimental": "The activity of caspases was determined by using a CaspACE^TM FITC-VAD-FMK (Promega, Madison, WI, USA). Briefly, HeLa cells were cultured in 24-well plates for 24 h under standard conditions and treated by 5f at 7 or 10 µM for 48 h. The cells were collected and incubated with fluorophore-conjugated pancaspase inhibitor FITC-VAD-FMK in darkness for 30 min at room temperature. After incubation, the cells were centrifuged, washed twice with PBS, and analyzed by flow cytometry. For each sample, 10,000 events were acquired."}, "[3]": {"tested_on": "caspase-3/7 in HeLa cells", "experiment": "Executioner caspases-3/7 activity assay (Caspase-Glo 3/7)", "assay_type": "cell-based, human", "conditions": "48 h", "experimental": "The activity of caspase-3/7 in HeLa cells was evaluated using a Caspase-Glo® 3/7 assay kit (Promega, Madison, WI, USA) according to manufacturer’s instructions. […] After incubation, 100 µL of Caspase-Glo® 3/7 Reagent was added to each wells, the plate was carefully shaken on a plate mixer, then incubated for 30 min in darkness at room temperature. The luminescence was measured using a luminometer (CLARIOstar plate reader (BMG Labtech, Ortenberg, Germany))."}, "B16 melanoma": {"tested_on": "B16 melanoma", "experiment": "Metastatic model of murine B16 melanoma in C57Bl/6 mice", "assay_type": "in vivo", "conditions": "five injections; for decrease of the numbers of surface metastases in the lungs: day 14", "experimental": "To generate a metastatic model of tumor progression, 10^5 B16 melanoma cells suspended in 0.2 mL of saline buffer were inoculated into the lateral tail vein of C57Bl/6 mice. On day 4 after tumor transplantation, mice were divided into three groups (n = 9 per group): (1) mice without treatment (control); (2) mice who received intraperitoneal (i.p.) injections of 10% Tween-80 (vehicle); and (3) mice who received i.p. injections of 5f in 10% Tween-80 at a dose of 50 mg/kg. The treatment was carried out three times a week. The total number of injections was five. Mice were sacrificed on day 14 after B16 melanoma transplantation and the lungs were collected for calculation of surface metastases.\nTo study the antimetastatic action of 5f, evaluation of surface metastases in lungs of B16 melanoma bearing mice was carried out. Surface metastases in the lungs were counted using a binocular microscope. Inhibition of metastases development was assessed using the metastasis inhibition index (MII), calculated according to the formula: MII=(∑n(N¯control−Nn)×100% /N¯control)/n, where N is the number of surface metastases and n is the number of mice in the analyzed group. The MII of the control group was taken as 0% and the MII reflecting the absence of metastases was taken as 100%."}},
  "data": [
    {"smiles": "CC1(C)C2CC[C@]3(C)C(C(=O)C=C4[C@@H]5C[C@@](C)(c6nc(-c7ccccn7)no6)CC[C@]5(C)CC[C@]43C)[C@@]2(C)CC[C@@H]1O", "note": "(stereo partly drawn) [Compound 5f, 30-nor-3β-hydroxy-11-oxo-20-(3′-(pyridin-2′′-yl)-1′,2′,4′-oxadiazol-5′-yl)-18βH-olean-12-en]", "values": [
      {"measurement": "IC50", "setting": "[1]; Homo sapiens, KB 3-1, MTT, 48 h, read-out: IC50, µM Cervix KB-3-1", "result": "4.7 ± 0.1", "unit": "µM"},
      {"measurement": "Selectivity index: KB-3-1", "setting": "[1]; IC50 in hFF3 / IC50 in KB-3-1", "result": "> 10.6"},
      {"measurement": "early apoptotic cells (quadrant Q4-4)", "setting": "HeLa cells; 7 µM", "result": 12.5, "unit": "%"},
      {"measurement": "late apoptotic cells (quadrant Q4-2)", "setting": "HeLa cells; 7 µM", "result": 60.7, "unit": "%"},
      {"measurement": "early apoptotic cells (quadrant Q4-4)", "setting": "HeLa cells; 10 µM", "result": 8.1, "unit": "%"},
      {"measurement": "late apoptotic cells (quadrant Q4-2)", "setting": "HeLa cells; 10 µM", "result": 66.5, "unit": "%"},
      {"measurement": "necrotic cells (quadrant Q4-1)", "setting": "HeLa cells; 10 µM", "result": 14.2, "unit": "%"},
      {"measurement": "metacaspase activation (FITC-VAD-FMK fluorescence)", "setting": "[2]", "result": "significantly increased the intensity of FITC fluorescence"},
      {"measurement": "increase of caspase-3/7 activity in comparison with control", "setting": "[3]; 5 µM", "result": 1.3, "unit": "times"},
      {"measurement": "increase of caspase-3/7 activity in comparison with control", "setting": "[3]; 7 µM", "result": 1.9, "unit": "times"},
      {"measurement": "mice with kidney metastases", "setting": "B16 melanoma; 50 mg/kg i.p.", "result": "2/9"},
      {"measurement": "mice with liver metastases", "setting": "B16 melanoma; 50 mg/kg i.p.", "result": "1/9"},
      {"measurement": "decrease of the numbers of surface metastases in the lungs", "setting": "B16 melanoma; 50 mg/kg i.p., compared to untreated control animals", "result": 4.5, "unit": "times"},
      {"measurement": "decrease of the numbers of surface metastases in the lungs", "setting": "B16 melanoma; 50 mg/kg i.p., compared to vehicle-treated animals", "result": 3.4, "unit": "times"},
      {"measurement": "metastasis inhibition index (MII)", "setting": "B16 melanoma; 50 mg/kg i.p., relative to untreated control", "result": "77.7 ± 4.7", "unit": "%"},
      {"measurement": "suppression of metastasis growth compared to the vehicle-treated control", "setting": "B16 melanoma; 50 mg/kg", "result": 70, "unit": "%"}
    ]}
  ]
}
